Values of other authors, collected in patent publication US20250283018A1, “TOILET RIM BLOCKS WITH SCENT CHANGE” (SYMRISE AG, priority 2021, published 2025).
Where two headings read alike, the source gives them in different places.

What was measured:
[1] = not given; remark: listed apart in the source
[2] = Table 3, components of POWER PLATIN

Molecule	Bp. [° C.] [2] [°C]	Bp. [° C.] (list of selected fragrances) [°C]	logP ([1]; list of selected fragrances)	Bp. [° C.] (Table 1, components of MARINA) [°C]	logP ([1]; Table 1, components of MARINA)	other results
c1ccc2[nH]ccc2c1 [INDOL FF]	254	–	–	–	–	Bp. [° C.] (Table 2, components of PEACH): 254 °C; logP ([1]; Table 2, components of PEACH): 2.05; logP [1, 2]: 2.05
CC(=O)OCCC(C)C [ISOAMYLACETAT]	–	–	–	–	–	Bp. [° C.] (Table 2, components of PEACH): 143 °C; logP ([1]; Table 2, components of PEACH): 2.26
CCCC(=O)OCCC(C)C [ISOAMYLBUTYRAT]	–	–	–	–	–	Bp. [° C.] (Table 2, components of PEACH): 179 °C; logP ([1]; Table 2, components of PEACH): 3.25
CCC(C)=CCCC(C)=CC#N [LEMONILE]	249	–	–	–	–	logP [1, 2]: 3.96
C=CC(C)(O)CCC=C(C)C (centres unmarked) [LINALOOL]	198	–	–	–	–	logP [1, 2]: 3.38
Cc1ccc2c(c1)OCC(=O)CO2 [METHYLBENZODIOXEPINON]	–	289	1.8	–	–	–
CCCCCCCCCCCCCCCCCC=O [OCTADECANAL]	–	250	1.83	–	–	–
O=C1CCCCCCCCCCCCCCO1 [OMEGA PENTADECALACTONE]	–	341	5.35	–	–	–
CCCCCCCCCCC=CC#N [OZONIL]	–	–	–	293	5.04	–
CC1(C)C2CC=C(CCC=O)C1C2 (centres unmarked) [PINOACETALDEHYD]	–	–	–	242	3.76	–
CC(C)=CCCC1=CCC(C)(C=O)CC1 (centres unmarked) [PRECYCLEMONE B]	267	–	–	267	5.19	logP [1, 2]: 5.19
COC1CC2CC1C1CC(C=O)CC21 (centres unmarked) [SCENTENAL]	–	–	–	273	2.03	–
CC1=CCC(=C(C)C)CC1 [TERPINOLEN DEXTRO]	197	–	–	–	–	logP [1, 2]: 4.88
CCCCCCCCCCCCCC=O [TETRADECANAL]	–	286	2.89	–	–	–
CC(C)CCCC(C)CCO (centres unmarked) [TETRAHYDROGERANIOL]	212	–	–	212	3.64	logP [1, 2]: 3.64
CC1CCC(C(C)(C)S)C(=O)C1 (centres unmarked) [THIOMENTHANON-8,3]	–	–	–	–	–	Bp. [° C.] (Table 2, components of PEACH): 271 °C; logP ([1]; Table 2, components of PEACH): 2.78
CCCCCCCCCC(C)=O [UNDECANON-2]	231.5	–	–	–	–	logP [1, 2]: 3.69
CC/C=C(\C)C(O)CCCCC (centres unmarked) [UNDECAVERTOL]	–	–	–	235	4.05	–
CCCCCC1(C)CCC(C)(C)C1=O (centres unmarked) [VELOUTONE]	–	–	–	–	–	Bp. [° C.] (Table 2, components of PEACH): 247 °C; logP ([1]; Table 2, components of PEACH): 4.34
CC(=O)OC1CC2CC1C1CC=CC21 (centres unmarked) [VERDYL ACETATE]	–	260	2.36	–	–	–
COC(=O)c1ccccc1N [[…]]	256	256	2.12	256	–	–
CARYOPHYLLENACETAT	–	306	5.52	306	5.75	Bp. [° C.] (Table 2, components of PEACH): 306 °C; logP ([1]; Table 2, components of PEACH): 5.75
HERBYLPROPIONAT	–	276.15	2.89	276.15	3.68	–
ISOBUTYLMENTHONE	–	–	–	211	2.94	–
MENTHON L/ISOMENTHON D	–	–	–	204	2.87	–
NEROL 900	228	–	–	–	–	logP [1, 2]: 3.47
SPIRO[1,3-DIOXOLANE-2,5′-(4′,4′,8′,8′-TETRAMETHYL-HEXAHYDRO-3′,9′-MENTHANONAPHTHALENE)]	–	280	5.16	–	–	–
